24 compounds from patent US10344039B2, “Macrocyclic spirocarbamate derivatives as factor XIa inhibitors, pharmaceutically acceptable compositions and their use” (MERCK SHARP & DOHME CORP., priority 2015, dated 2019) can be followed below.

The target in the test is T1, purified human Factor XIa (Homo sapiens, UniProt P03951).
T1 construct: purified human Factor XIa; purchased Sekisui Diagnostics
T1 sequence (P03951 388-625 limits assumed): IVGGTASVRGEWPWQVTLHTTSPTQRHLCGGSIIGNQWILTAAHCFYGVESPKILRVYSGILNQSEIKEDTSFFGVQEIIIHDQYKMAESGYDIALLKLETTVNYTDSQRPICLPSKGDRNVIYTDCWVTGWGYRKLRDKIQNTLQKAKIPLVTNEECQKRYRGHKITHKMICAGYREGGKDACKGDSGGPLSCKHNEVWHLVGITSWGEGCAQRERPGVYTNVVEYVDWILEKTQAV
T1 sequence (P03951 19-387 partner limits assumed): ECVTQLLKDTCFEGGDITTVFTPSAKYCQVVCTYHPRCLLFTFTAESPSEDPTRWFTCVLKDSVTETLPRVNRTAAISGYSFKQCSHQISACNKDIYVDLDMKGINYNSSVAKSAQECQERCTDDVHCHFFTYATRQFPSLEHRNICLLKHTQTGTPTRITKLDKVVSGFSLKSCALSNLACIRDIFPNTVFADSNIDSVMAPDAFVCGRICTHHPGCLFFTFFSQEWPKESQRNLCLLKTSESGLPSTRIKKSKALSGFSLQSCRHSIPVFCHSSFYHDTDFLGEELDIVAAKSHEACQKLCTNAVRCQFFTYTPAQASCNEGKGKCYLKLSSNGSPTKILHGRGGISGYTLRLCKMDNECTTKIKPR
Briefly: Factor XIa Assay. In kind it is biochemical. The settings on record: purified human Factor XIa 40 pM; substrate Z-Gly-Pro-Arg-AFC 100 μM; 50 mM HEPES pH 7.4; read-out: Hu FXIa Ki. How it is done: The effectiveness of a compound of the present invention as an inhibitor of Coagulation Factor XIa can be determined using a relevant purified serine protease, and an appropriate synthetic substrate. The rate of hydrolysis of the chromogenic or fluorogenic substrate by the relevant serine protease was measured both in the absence and presence of compounds of the present invention. Assays were conducted at room temperature or at 37° C. […] A decrease in the rate of fluorescence change in the presence of inhibitor is indicative of enzyme inhibition. Such methods are known to one skilled in the art. The results of this assay are expressed as the inhibitory constant, Ki.
Factor XIa determinations were made in 50 mM HEPES buffer at pH 7.4 containing 150 mM NaCl, 5 mM CaCl2, and 0.1% PEG 8000 (polyethylene glycol; JT Baker or Fisher Scientific). Determinations were made using purified human Factor XIa at a final concentration of 40 pM (Sekisui Diagnostics) and he synthetic substrate, Z-Gly-Pro-Arg-AFC, TFA salt (Sigma #C0980) at a concentration of 100 μM.
Activity assays were performed by diluting a stock solution of substrate at least tenfold to a final concentration ≤0.1 Km into a solution containing enzyme or enzyme equilibrated with inhibitor. Times required to achieve equilibration between enzyme and inhibitor were determined in control experiments. Initial velocities of product formation in the absence (Vo) or presence of inhibitor (Vi) were measured. Assuming competitive inhibition, and that unity is negligible compared Km/[S], [I]/e, and [I]/e (where [S], [I], and e respectively represent the total concentrations, of substrate, inhibitor and enzyme), the equilibrium constant (Ki) for dissociation of the inhibitor from the enzyme can be obtained from the dependence of Vo/Vi on [I] shown in the following equation. Vo/Vi=1+[I]/Ki
The activities shown by this assay indicate that the compounds of the invention may be therapeutically useful for treating or preventing various cardiovascular and/or cerebrovascular thromboembolic conditions in patients suffering from unstable angina, acute coronary syndrome, refractory angina, myocardial infarction, transient ischemic attacks, atrial fibrillation, stroke such as thrombotic stroke or embolic stroke, venous thrombosis, coronary and cerebral arterial thrombosis, cerebral and pulmonary embolism, atherosclerosis, deep vein thrombosis, disseminated intravascular coagulation, and reocclusion or restenosis of recanalized vessels. The Ki values measured for each of the example compounds of the invention using this assay are reported in the tables above (as “Hu FXIa Ki (nM)”).
Broadly, the Ki is the dissociation constant of the complex between target and ligand, obtained from inhibition or displacement. As to `O=C1Nc2ccc(Cl)c(F)c2[C@@]2(CCN(C(=O)C3CCCCC(C(=O)O)Nc4ccc(F)cc4-c4ccnc3c4)C2)O1` (single isomer, unassigned) [Example 37b], the Ki was greater than 875 nM.
As for `O=C1CCCC[C@@H](C(=O)N2CCC[C@@]3(C2)OC(=O)Nc2ccc(Cl)cc23)c2nc(c[nH]2)-c2ccc(F)cc2N1` (single isomer, unassigned) [Example 2a], the Ki stood at 268 nM.
Under `COC(=O)Nc1ccc2c(c1)NC(=O)CC/C=C/C[C@H](C(=O)N1CCC[C@@]3(C1)OC(=O)Nc1ccc(Cl)c(F)c13)c1cc-2ccn1` [Example 21b, methyl ((S,E)-10-((R)-6-chloro-5-fluoro-2-oxo-1,2-dihydrospiro[benzo[d][1,3]oxazine-4,3′-piperidine]-1′-carbonyl)-4-oxo-3-aza-1(4,2)-pyridina-2(1,2)-benzenacyclodecaphanen-2^4-yl)carbamate] stands greater than 875 nM; under `COC(=O)Nc1ccc2c(c1)NC(=O)C(C)CCCC(C(=O)N1CCC[C@@]3(C1)OC(=O)Nc1ccc(Cl)cc13)c1cc-2ccn1` (single isomer, unassigned) [Example 15d], greater than 5000 nM; under `CCOC(=O)C1CCCCC(C(=O)N2CCC[C@@]3(C2)OC(=O)Nc2ccc(Cl)c(F)c23)c2nc(c[nH]2)-c2ccc(NC(=O)OC)cc2N1` (single isomer, unassigned) [Example 32d], greater than 875 nM.
Regarding `COC(=O)Nc1ccc2c(c1)NC(=O)CCCC[C@H](C(=O)N1CCC[C@@]3(C1)OC(=O)Nc1ccc(Cl)c(F)c13)c1cc(F)cc-2c1` [Example 30a, methyl ((S)-9-((R)-6-chloro-5-fluoro-2-oxo-1,2-dihydrospiro[benzo[d][1,3]oxazine-4,3′-piperidine]-1′-carbonyl)-1^5-fluoro-4-oxo-3-aza-1(1,3),2(1,2)-dibenzenacyclononaphane-2^4-yl)carbamate], the Ki is greater than 8750 nM.
With `Nc1ccc2c(c1)NC(=O)CC/C=C\C[C@H](C(=O)N1CCC[C@@]3(C1)OC(=O)Nc1ccc(Cl)c(F)c13)c1cc-2ccn1` (single isomer, unassigned) [Example 20b], the Ki is greater than 875 nM.
For the compound `COC(=O)Nc1ccc2c(c1)NC(=O)CCCCC[C@@H](C(=O)N1CCC[C@@]3(C1)OC(=O)Nc1ccc(Cl)cc13)c1cc-2ccn1` [Example 16b, methyl ((R)-10-((R)-6-chloro-2-oxo-1,2-dihydrospiro[benzo[d][1,3]oxazine-4,3′-piperidine]-1′-carbonyl)-4-oxo-3-aza-1(4,2)-pyridina-2(1,2)-benzenacyclodecaphane-2^4-yl)carbamate], the Ki is 284 nM.
Under `COC(=O)Nc1ccc2c(c1)NC(=O)[C@H](C)CCC[C@H](NC(=O)N1CCC[C@@]3(C1)OC(=O)Nc1ccc(Cl)cc13)c1cc-2ccn1` [Example 40, methyl ((5R,9S)-9-((R)-6-chloro-2-oxo-1,2-dihydrospiro[benzo[d][1,3]oxazine-4,3′-piperidine]-1′-carboxamido)-5-methyl-4-oxo-3-aza-1(4,2)-pyridina-2(1,2)-benzenacyclononaphane-2^4-yl)carbamate] stands greater than 5000 nM; under `O=C1CCCC[C@H](C(=O)N2CCC[C@@]3(C2)OC(=O)Nc2ccc(Cl)cc23)c2nc(c[nH]2)-c2ccc(F)cc2N1` (single isomer, unassigned) [Example 2b], greater than 5000 nM; under `CCOC(=O)C1CCCCC(C(=O)N2CCC[C@@]3(C2)OC(=O)Nc2ccc(Cl)c(F)c23)c2cc(ccn2)-c2cc(F)ccc2N1` (single isomer, unassigned) [Example 34d], greater than 875 nM.
As to `CCOC(=O)C1CCCCC(C(=O)N2CCC[C@@]3(C2)OC(=O)Nc2ccc(Cl)c(F)c23)c2cc(ccn2)-c2cc(F)ccc2N1` (single isomer, unassigned) [Example 34a], the Ki is 628 nM.
Consider `COC(=O)Nc1ccc2c(c1)NC(=O)CCCC[C@H](C(=O)N1CC[C@@]3(C1)OC(=O)Nc1ccc(Cl)c(F)c13)c1cccc-2n1` (single isomer, unassigned) [Example 23a], for which the Ki is greater than 875 nM.
Under `CCOC(=O)C1CCCCC(C(=O)N2CC[C@@]3(C2)OC(=O)Nc2ccc(Cl)c(F)c23)c2cc(ccn2)-c2cc(F)ccc2N1` (single isomer, unassigned) [Example 36b] stands greater than 875 nM.
Under `COC(=O)Nc1ccc2c(c1)NC(=O)[C@@H](C)CCC[C@H](NC(=O)N1CCC[C@@]3(C1)OC(=O)Nc1ccc(Cl)cc13)c1cc-2ccn1` [Example 39, methyl ((5S,9S)-9-((R)-6-chloro-2-oxo-1,2-dihydrospiro[benzo[d][1,3]oxazine-4,3′-piperidine]-1′-carboxamido)-5-methyl-4-oxo-3-aza-1(4,2)-pyridina-2(1,2)-benzenacyclononaphane-2^4-yl)carbamate] stands 455 nM.
On to `COC(=O)Nc1ccc2c(c1)NC(=O)CC/C=C\C[C@H](C(=O)N1CCC[C@@]3(C1)OC(=O)Nc1ccc(Cl)c(F)c13)c1cc-2ccn1` [Example 22b, methyl ((S,Z)-10-((R)-6-chloro-5-fluoro-2-oxo-1,2-dihydrospiro[benzo[d][1,3]oxazine-4,3′-piperidine]-1′-carbonyl)-4-oxo-3-aza-1(4,2)-pyridina-2(1,2)-benzenacyclodecaphanen-2^4-yl)carbamate], for which the Ki was greater than 875 nM.
Under `COC(=O)Nc1ccc2c(c1)NC(=O)C(C)CCCC(C(=O)N1CCC[C@@]3(C1)OC(=O)Nc1ccc(Cl)cc13)c1cc-2ccn1` (single isomer, unassigned) [Example 15c] stands 1760 nM.
For `COC(=O)Nc1ccc2c(c1)NC(=O)CCCC[C@H](C(=O)N1CC[C@@]3(C1)OC(=O)Nc1ccc(Cl)cc13)c1cc-2ccn1` [Example 17b, methyl ((S)-9-((R)-6-chloro-2-oxo-1,2-dihydrospiro[benzo[d][1,3]oxazine-4,3′-pyrrolidine]-1′-carbonyl)-4-oxo-3-aza-1(4,2)-pyridina-2(1,2)-benzenacyclononaphane-2^4-yl)carbamate], the Ki is greater than 8750 nM.
Take `COC(=O)Nc1ccc2c(c1)NC(=O)CCCCC(C(=O)N1CCC[C@@]3(C1)OC(=O)Nc1ccc(Cl)c(F)c13)c1cccc-2n1` (stereo partly drawn) [Example 24, methyl (9-((R)-6-chloro-5-fluoro-2-oxo-1,2-dihydrospiro[benzo[d][1,3]oxazine-4,3′-piperidine]-1′-carbonyl)-4-oxo-3-aza-1(2,6)-pyridina-2(1,2)-benzenacyclononaphane-2^4-yl)carbamate]: the Ki is greater than 875 nM.
Under `Nc1ccc2c(c1)NC(=O)CC/C=C\C[C@@H](C(=O)N1CCC[C@@]3(C1)OC(=O)Nc1ccc(Cl)c(F)c13)c1cc-2ccn1` [Example 20a, (R)-1′-((R,Z)-2^4-amino-4-oxo-3-aza-1(4,2)-pyridina-2(1,2)-benzenacyclodecaphan-7-ene-10-carbonyl)-6-chloro-5-fluorospiro[benzo[d][1,3]oxazine-4,3′-piperidin]-2(1H)-one] stands 211 nM; under `O=C1CCCC[C@H](C(=O)N2CC[C@@]3(C2)OC(=O)Nc2ccc(Cl)cc23)c2nc(c[nH]2)-c2ccc(F)cc2N1` [Example 5a, (R)-6-chloro-1′-((S,Z)-2^4-fluoro-4-oxo-1^1H-3-aza-1(4,2)-imidazola-2(1,2)-benzenacyclononaphane-9-carbonyl)spiro[benzo[d][1,3]oxazine-4,3′-pyrrolidin]-2(1H)-one], greater than 8750 nM; under `COC(=O)Nc1ccc2c(c1)NC(=O)CCCC[C@H](C(=O)N1CCC[C@@]3(C1)OC(=O)Nc1ccc(Cl)cc13)c1cc(F)cc-2c1` [Example 29b, methyl ((S)-9-((R)-6-chloro-2-oxo-1,2-dihydrospiro[benzo[d][1,3]oxazine-4,3′-piperidine]-1′-carbonyl)-1^5-fluoro-4-oxo-3-aza-1(1,3),2(1,2)-dibenzenacyclononaphane-2^4-yl)carbamate], greater than 8750 nM.
On to `COC(=O)Nc1ccc2c(c1)NC(=O)CCCC[C@H](C(=O)N1CCC[C@@]3(C1)OC(=O)Nc1ccc(Cl)cc13)c1nc-2c[nH]1` [Example 3b, methyl ((S,Z)-9-((R)-6-chloro-2-oxo-1,2-dihydrospiro[benzo[d][1,3]oxazine-4,3′-piperidine]-1′-carbonyl)-4-oxo-1^1H-3-aza-1(4,2)-imidazola-2(1,2)-benzenacyclononaphane-2^4-yl)carbamate], for which the Ki came out at 65 nM.
Under `CCOC(=O)C1CCCCC(C(=O)N2CC[C@@]3(C2)OC(=O)Nc2ccc(Cl)c(F)c23)c2cc(ccn2)-c2cc(F)ccc2N1` (single isomer, unassigned) [Example 36a] stands greater than 875 nM.
